Experimental data: article PMC4980415 (Psychopharmacology, 2016)
Counter-ions that a name gives are not always drawn.

Key:
[1] = target: T1, H3 (h), histamine (Homo sapiens, UniProt Q9Y5N1); experiment: Off-target binding, General SEP II panel; settings: 10 μM ITI-214, mean of n = 2
T1 construct: Caliper Life Sciences (contract screen)

[2] = test system: memory acquisition and retrieval in male Wistar rats; experiment: Novel object recognition (NOR): suboptimal doses 2 h before T1 and T2; format: in vivo, rat
Method: (§1) The drug was administered, per os (po), by gavage to rats in a volume of 2 ml/kg body weight. Oral dosing solutions were prepared fresh daily. […] The pH of the dosing solution was adjusted to ~pH 5.5 by dropwise addition of 0.1 N NaOH in saline and volume adjusted by addition of saline in preparation for intraperitoneal (ip) dosing. […] Control treatments were always the vehicle solutions of the corresponding drugs.
The object recognition test was performed as described elsewhere (Ennaceur and Delacour [1988]; Akkerman et al. 2014). The apparatus consisted of a circular arena, 83 cm in diameter. Half of the 40-cm-high wall was made of gray polyvinyl chloride, the other half of transparent polyvinyl chloride. The light intensity was equal in the different parts of the apparatus, as fluorescent red tubes provided a constant illumination of about 20 lx on the floor of the apparatus. Two objects were placed in a symmetrical position at about 10 cm from the gray wall. Four different sets of objects were used. The different objects were (1) a cone consisting of a gray polyvinyl chloride base (maximal diameter 18 cm) with a collar on top made of brass (total height 16 cm), (2) a standard 1 L transparent glass bottle (diameter 10 cm, height 22 cm) filled with water, (3) a large metal cube (10.0 × 5.0 × 7.5 cm) with two holes (diameter 1.9 cm), and (4) a large aluminum cube with a tapering top (13.0 × 8.0 × 8.0 cm). The objects used in this study were carefully selected to be “novelty neutral,” that is to say the rats have no innate preference for one over the other. […]
A testing session consisted of two trials. […] The times spent in exploring each object during T1 and T2 were recorded manually using a personal computer. […]
The basic measure recorded was the time spent by each rat exploring an object during T1 and T2. […] The following variables were calculated: e1 = a1 + a2, e2 = a + b, and d2 = (b − a) / e2. […] Differences in exploration times between treatment conditions were analyzed using a t test or one-way ANOVA. […]

[3] = test system: early memory consolidation in male Wistar rats; experiment: Novel object recognition (NOR): early consolidation, drug 4 min after T1; format: in vivo, rat; settings: 4 min after T1 (head prints T2 +4 min)
Method: as §1
The object recognition test was performed as described elsewhere (Ennaceur and Delacour [1988]; Akkerman et al. 2014). The apparatus consisted of a circular arena, 83 cm in diameter. Half of the 40-cm-high wall was made of gray polyvinyl chloride, the other half of transparent polyvinyl chloride. The light intensity was equal in the different parts of the apparatus, as fluorescent red tubes provided a constant illumination of about 20 lx on the floor of the apparatus. Two objects were placed in a symmetrical position at about 10 cm from the gray wall. Four different sets of objects were used. The different objects were (1) a cone consisting of a gray polyvinyl chloride base (maximal diameter 18 cm) with a collar on top made of brass (total height 16 cm), (2) a standard 1 L transparent glass bottle (diameter 10 cm, height 22 cm) filled with water, (3) a large metal cube (10.0 × 5.0 × 7.5 cm) with two holes (diameter 1.9 cm), and (4) a large aluminum cube with a tapering top (13.0 × 8.0 × 8.0 cm). The objects used in this study were carefully selected to be “novelty neutral,” that is to say the rats have no innate preference for one over the other. In all cases, objects were of sufficient size and weight that rats could not move the objects.
A testing session consisted of two trials. The duration of each trial was 3 min. During the first trial (T1), the apparatus contained two identical objects (samples). Rats were placed in the apparatus facing the wall at the middle of the front (transparent) segment. After the first exploration period, the rat was put back in its home cage. Subsequently, after a 24-h delay interval, the rat was put in the apparatus for the second trial (T2). The times spent in exploring each object during T1 and T2 were recorded manually using a personal computer.
Exploration was defined as follows: directing the nose to the object at a distance of no more than 2 cm and/or touching the object with the nose. Sitting on the object was not considered as exploratory behavior. In order to avoid the presence of olfactory cues, the objects were always thoroughly cleaned with a 70 % ethanol solution before each trial. All combinations and locations of objects were used in a balanced manner to reduce potential biases due to preferences for particular locations or objects.
During the first 2 weeks after animal arrival, the animals were handled daily. They were then adapted to the procedure over the period of 2 days by allowing them to explore the apparatus (without any objects) for 3 min twice each day. […] After this, the rats were assigned to treatment conditions in a balanced manner, thereby insuring an equal distribution of object combinations among the treatment conditions. […] In all experiments, a 24-h inter-trial interval was used. In all cases, the experimenter was unaware of the treatment conditions that were being tested.
The basic measure recorded was the time spent by each rat exploring an object during T1 and T2. The time spent in exploring the two identical samples was represented by “a1” and “a2.” The time spent in T2 in exploring the sample and new object was represented by “a” and “b,” respectively. The following variables were calculated: e1 = a1 + a2, e2 = a + b, and d2 = (b − a) / e2. The e1 and e2 are measures of the total exploration time of both objects during T1 and T2, respectively. Differences in exploration times between treatment conditions were analyzed using a t test or one-way ANOVA. […]

[4] = healthy volunteers and patients with schizophrenia; no reference given; cited from earlier work
[5] = 0.3 mg/kg 2 h before T1 and 0.1 mg/kg 2 h before T2, po

T1 sequence (Q9Y5N1 whole entry): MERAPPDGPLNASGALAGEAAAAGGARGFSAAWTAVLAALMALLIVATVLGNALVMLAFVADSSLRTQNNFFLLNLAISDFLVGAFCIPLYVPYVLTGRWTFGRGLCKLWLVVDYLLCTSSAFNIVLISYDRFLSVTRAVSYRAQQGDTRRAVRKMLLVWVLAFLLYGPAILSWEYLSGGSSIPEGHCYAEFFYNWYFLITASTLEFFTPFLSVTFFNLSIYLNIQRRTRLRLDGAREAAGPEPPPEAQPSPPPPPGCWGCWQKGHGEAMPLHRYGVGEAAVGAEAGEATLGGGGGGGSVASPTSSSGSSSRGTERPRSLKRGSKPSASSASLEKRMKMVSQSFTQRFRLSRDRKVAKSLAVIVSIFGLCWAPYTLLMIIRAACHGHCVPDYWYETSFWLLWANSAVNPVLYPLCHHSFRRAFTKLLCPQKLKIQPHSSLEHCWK

With `CN1C(=O)c2c(nn(Cc3ccc(-c4cccc(F)n4)cc3)c2Nc2ccccc2)N2C1=N[C@@H]1CCC[C@@H]12` [ITI-214, (6aR,9aS)-2-(4-(6-fluoropyridin-2-yl)benzyl)-5-methyl-3-(phenylamino)-5,6a,7,8,9,9a-hexahydrocyclopenta-[4,5]imidazo[1,2-a]pyrazolo[4,3-e]pyrimidin-4-(2H)-one phosphate salt] the “% Binding” value [1] was 32.54%, the “Exploration time e1 (T1)” value [2, 5] was 30.43 (2.16) s and the “Exploration time e2 (T2)” value [2, 5] was 28.78 (1.26) s. For the same compound, the “effect on discrimination behavior (d2), combined sub-effective doses” value ([2]; 0.3 mg/kg 2 h before T1 plus 0.1 mg/kg 2 h before T2, different from chance and vehicle, p < 0.001) was “full increase in discrimination behavior”, the “Exploration time e1 (T1)” value ([3]; 1 mg/kg po) was 26.36 (1.93) s and the “Exploration time e2 (T2)” value ([3]; 1 mg/kg po) was 29.66 (1.94) s. For the same compound, the “Exploration time e1 (T1)” value ([3]; 3 mg/kg po) was 25.02 (2.20) s, the “Exploration time e2 (T2)” value ([3]; 3 mg/kg po) was 30.55 (1.84) s and the “Exploration time e1 (T1)” value ([3]; 10 mg/kg po) was 30.01 (1.62) s. The “Exploration time e2 (T2)” value ([3]; 10 mg/kg po) was 31.35 (1.71) s and the safety and tolerability [4] was “safe and well-tolerated”.
